From patent publication US12398154B2, “Azaquinazoline pan-KRas inhibitors” (Mirati Therapeutics, Inc., priority 2020, dated 2025)

Key:
[1] = biological target: KRas G12D (Homo sapiens, UniProt P01116, G12D); experiment: biochemical;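 further: TR-FRET displacement binding assay on KRas, read after a one-hour incubation at room temperature, IC50 fitted from percent-of-control values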
Description: (§1) The ability of a compound to bind to KRas was measured using a TR-FRET displacement assay. […] After a 60-minute incubation at room temperature, the reaction was measured using a BMG LABTECH CLARIO star Plus via TR-FRET. […] The POC values were fit to a 4-parameter IC50 equation and the IC50 value reported.

[2] = biological target: KRas G12V (Homo sapiens, UniProt P01116, G12V); experiment: biochemical;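 further: KRas binding measured by TR-FRET displacement at room temperature, IC50 fitted from percent of control values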
Description: as §1

[3] = biological target: KRas G12R (Homo sapiens, UniProt P01116, G12R); experiment: biochemical;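 further: TR-FRET displacement assay of compound binding to KRas, read after one hour at room temperature, potency from a four-parameter fit of percent-of-control values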
Description: as §1

[4] = system: pERK in ASPC1 cells; experiment: Inhibition of KRas phosphorylation of ERK (Cisbio HTRF pERK assay); settings: Homo sapiens, ASPC1, read-out: Inhibition (HTRF IC50) of KRas-mediated Phosphorylation of ERK, AsPC-1
[5] = system: pERK in H727 cells; experiment: as above; settings: Homo sapiens, NCI-H727, read-out: Inhibition (HTRF IC50) of KRas-mediated Phosphorylation of ERK, H727
[6] = biological target: KRas G12A (Homo sapiens, UniProt P01116, G12A); experiment: biochemical;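 further: binding to KRas measured by TR-FRET displacement after one hour at room temperature, IC50 from a four-parameter fit of percent-of-control values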
Description: as §1

[7] = biological target: KRas G12S (Homo sapiens, UniProt P01116, G12S); experiment: biochemical;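 further: TR-FRET displacement binding to KRas, read after one hour incubation at room temperature, IC50 from four-parameter fit of percent of control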
Description: as §1

[8] = biological target: KRas G12C (Homo sapiens, UniProt P01116, G12C); experiment: biochemical;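 further: binding to KRas assessed by TR-FRET displacement after one hour incubation at room temperature, potency fitted from percent-of-control values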
Description: as §1

[9] = biological target: KRas WT (Homo sapiens, UniProt P01116); experiment: biochemical;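 further: binding to KRas read as TR-FRET displacement after a one-hour room-temperature incubation, IC50 derived from percent-of-control values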
Sequence of KRas WT (P01116 1-169 isoform P01116-2): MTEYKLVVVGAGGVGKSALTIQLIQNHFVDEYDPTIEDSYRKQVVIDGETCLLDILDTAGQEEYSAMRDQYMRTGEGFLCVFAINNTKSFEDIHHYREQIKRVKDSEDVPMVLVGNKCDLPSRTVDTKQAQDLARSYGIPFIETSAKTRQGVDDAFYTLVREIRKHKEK
Description: as §1

Sequence of KRas G12V (P01116 1-169 isoform P01116-2 G12V): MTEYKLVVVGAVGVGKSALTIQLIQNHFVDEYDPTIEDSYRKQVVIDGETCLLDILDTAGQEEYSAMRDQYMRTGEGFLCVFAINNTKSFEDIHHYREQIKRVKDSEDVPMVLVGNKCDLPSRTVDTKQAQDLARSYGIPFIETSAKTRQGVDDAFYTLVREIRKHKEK
Sequence of KRas G12S (P01116 1-169 isoform P01116-2 G12S): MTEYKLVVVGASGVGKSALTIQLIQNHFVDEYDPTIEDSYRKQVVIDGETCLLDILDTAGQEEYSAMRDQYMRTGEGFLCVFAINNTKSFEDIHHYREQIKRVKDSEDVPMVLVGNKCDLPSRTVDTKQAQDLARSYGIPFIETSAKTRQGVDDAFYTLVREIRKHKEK
Sequence of KRas G12D (P01116 1-169 isoform P01116-2 G12D): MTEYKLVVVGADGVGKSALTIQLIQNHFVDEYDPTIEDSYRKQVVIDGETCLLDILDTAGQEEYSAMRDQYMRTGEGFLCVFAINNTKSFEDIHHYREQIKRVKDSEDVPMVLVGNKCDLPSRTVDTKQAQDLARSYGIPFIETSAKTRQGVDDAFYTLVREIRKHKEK
Sequence of KRas G12C (P01116 1-169 isoform P01116-2 G12C): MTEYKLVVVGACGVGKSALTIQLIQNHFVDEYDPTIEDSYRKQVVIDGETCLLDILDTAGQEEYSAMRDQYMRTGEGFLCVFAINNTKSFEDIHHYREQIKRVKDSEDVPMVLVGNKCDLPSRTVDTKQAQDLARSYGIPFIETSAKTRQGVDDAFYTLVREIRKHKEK
Sequence of KRas G12A (P01116 1-169 isoform P01116-2 G12A): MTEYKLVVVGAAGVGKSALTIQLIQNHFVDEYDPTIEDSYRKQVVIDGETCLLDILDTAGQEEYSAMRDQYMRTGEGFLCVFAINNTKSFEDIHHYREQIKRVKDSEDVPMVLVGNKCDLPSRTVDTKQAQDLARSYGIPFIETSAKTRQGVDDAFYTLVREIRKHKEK
Sequence of KRas G12R (P01116 1-169 isoform P01116-2 G12R): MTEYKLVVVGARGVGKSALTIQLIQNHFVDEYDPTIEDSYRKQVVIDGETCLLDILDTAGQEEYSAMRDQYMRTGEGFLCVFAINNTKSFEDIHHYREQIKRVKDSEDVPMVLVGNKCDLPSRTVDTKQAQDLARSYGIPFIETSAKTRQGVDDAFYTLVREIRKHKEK

IC50 [1]	IC50 [2]	IC50 [3]	IC50 [4]	IC50 [5]	IC50 [6]	IC50 [7]	IC50 [8]	IC50 [9]	SMILES
880 nM	350 nM	418 nM			321 nM	311 nM	430 nM	493 nM	O=C1NC(=O)C2(CCCN(c3nc(OCC45CCCN4CCC5)nc4c(F)c(-c5cccc6cccc(CF)c56)ncc34)C2)N1 (stereo not shown) [Example 462, 7-(8-fluoro-7-(8-(fluoromethyl)naphthalen-1-yl)-2-((hexahydro-1H-pyrrolizin-7a-yl)methoxy)pyrido[4,3-d]pyrimidin-4-yl)-1,3,7-triazaspiro[4.5]decane-2,4-dione]
87 nM	54 nM	61 nM			59 nM	49 nM	53 nM	53 nM	Cc1cccc2cccc(-c3ncc4c(N5CCCC6(C5)NC(=O)NC6=O)nc(OCC56CCCN5CCC6)nc4c3F)c12 (stereo not shown) [Example 448, 7-(8-fluoro-2-((hexahydro-1H-pyrrolizin-7a-yl)methoxy)-7-(8-methylnaphthalen-1-yl)pyrido[4,3-d]pyrimidin-4-yl)-1,3,7-triazaspiro[4.5]decane-2,4-dione]
2200 nM	3210 nM	4510 nM			5620 nM	3520 nM	3480 nM	5130 nM	N#CCc1cccc2cccc(-c3ncc4c(N5CCCC6(CC(=O)N6)C5)nc(OCC56CCCN5CCC6)nc4c3F)c12 (stereo not shown) [Example 434, 2-(8-(8-fluoro-2-((hexahydro-1H-pyrrolizin-7a-yl)methoxy)-4-(2-oxo-1,6-diazaspiro[3.5]nonan-6-yl)pyrido[4,3-d]pyrimidin-7-yl)naphthalen-1-yl)acetonitrile]
≥ 100000 nM	≥ 100000 nM	≥ 100000 nM			≥ 100000 nM	≥ 100000 nM	9860 nM	≥ 100000 nM	O=C1C[C@@]2(CCN(c3nc(OCC45CCCN4CCC5)nc4c(F)c(-c5cccc6cccc(F)c56)ncc34)C2)CN1 [Example 280, (S)-7-(8-fluoro-7-(8-fluoronaphthalen-1-yl)-2-((hexahydro-1H-pyrrolizin-7a-yl)methoxy)pyrido[4,3-d]pyrimidin-4-yl)-2,7-diazaspiro[4.4]nonan-3-one]
10 nM	4 nM	5 nM			5 nM	6 nM	6 nM	6 nM	CCc1cccc2cccc(-c3ncc4c(N5CCCC6(C5)NC(=O)NC6=O)nc(OCC56CCCN5CCC6)nc4c3F)c12 (stereo not shown) [Example 293, 7-(7-(8-ethylnaphthalen-1-yl)-8-fluoro-2-((hexahydro-1H-pyrrolizin-7a-yl)methoxy)pyrido[4,3-d]pyrimidin-4-yl)-1,3,7-triazaspiro[4.5]decane-2,4-dione]
313 nM	521 nM	674 nM			370 nM	407 nM	410 nM	608 nM	CCc1cccc2cccc(-c3ncc4c(N5CCCC6(CNC(=O)C6)C5)nc(OCC56CCCN5CCC6)nc4c3F)c12 (stereo not shown) [Example 286, 7-(7-(8-ethylnaphthalen-1-yl)-8-fluoro-2-((hexahydro-1H-pyrrolizin-7a-yl)methoxy)pyrido[4,3-d]pyrimidin-4-yl)-2,7-diazaspiro[4.5]decan-3-one]

Continued, molecule first:

SMILES	IC50 [1]	IC50 [2]	IC50 [3]	IC50 [4]	IC50 [5]	IC50 [6]	IC50 [7]	IC50 [8]	IC50 [9]
Cc1cc2[nH]ncc2c(-c2ncc3c(N4CCCC5(CC(=O)N5)C4)nc(OCC45CCCN4CCC5)nc3c2F)c1C (stereo not shown) [Example 523, 6-(7-(5,6-dimethyl-1H-indazol-4-yl)-8-fluoro-2-((hexahydro-1H-pyrrolizin-7a-yl)methoxy)pyrido[4,3-d]pyrimidin-4-yl)-1,6-diazaspiro[3.5]nonan-2-one]	166 nM	129 nM	217 nM	≥ 10000 nM	≥ 10000 nM				
CCc1c(F)ccc2cc(O)cc(-c3ncc4c(NCC5CNC5=O)nc(OC[C@@]56CCCN5C[C@H](F)C6)nc4c3F)c12 (stereo partly drawn) [Example 485, 3-(((7-(8-ethyl-7-fluoro-3-hydroxynaphthalen-1-yl)-8-fluoro-2-(((2R,7aS)-2-fluorotetrahydro-1H-pyrrolizin-7a(5H)-yl)methoxy)pyrido[4,3-d]pyrimidin-4-yl)amino)methyl)azetidin-2-one]	9 nM	≤ 2 nM	3 nM	6620 nM	1220 nM				
Cc1cc2[nH]ncc2c(-c2ncc3c(N4CCOCC(C)(O)C4)nc(OCC45CCCN4CCC5)nc3c2F)c1C (stereo not shown) [Example 522, 4-(7-(5,6-dimethyl-1H-indazol-4-yl)-8-fluoro-2-((hexahydro-1H-pyrrolizin-7a-yl)methoxy)pyrido[4,3-d]pyrimidin-4-yl)-6-methyl-1,4-oxazepan-6-ol]	292 nM	390 nM	759 nM	≥ 10000 nM	≥ 10000 nM				
CCc1c(F)ccc2cc(O)cc(-c3ncc4c(N5CCC6C(=O)NC(=O)C6C5)nc(OC[C@@]56CCCN5C[C@H](F)C6)nc4c3F)c12 (stereo partly drawn) [Example 487, 5-(7-(8-ethyl-7-fluoro-3-hydroxynaphthalen-1-yl)-8-fluoro-2-(((2R,7aS)-2-fluorohexahydro-1H-pyrrolizin-7a-yl)methoxy)pyrido[4,3-d]pyrimidin-4-yl)hexahydro-1H-pyrrolo[3,4-c]pyridine-1,3(2H)-dione]	14 nM	5 nM	6 nM	≥ 10000 nM	4990 nM				
O=S1(=O)NC[C@@]2(CCCN(c3nc(OC[C@@]45CCCN4C[C@H](F)C5)nc4c(F)c(-c5cc(O)cc6ccc(F)c(Cl)c56)ncc34)C2)N1 [Example 516, (S)-7-(7-(8-chloro-7-fluoro-3-hydroxynaphthalen-1-yl)-8-fluoro-2-(((2R,7aS)-2-fluorotetrahydro-1H-pyrrolizin-7a(5H)-yl)methoxy)pyrido[4,3-d]pyrimidin-4-yl)-2-thia-1,3,7-triazaspiro [4.5]decane2,2-dioxide]				9320 nM	5690 nM				
OCC1CN(c2nc(OCC34CCCN3CCC4)nc3c(F)c(-c4cccc5cccc(F)c45)ncc23)CCCO1 (stereo not shown) [Example 269, (4-(8-fluoro-7-(8-fluoronaphthalen-1-yl)-2-((hexahydro-1H-pyrrolizin-7a-yl)methoxy)pyrido[4,3-d]pyrimidin-4-yl)-1,4-oxazepan-2-yl)methanol]	1910 nM	1000 nM	1060 nM			1050 nM	725 nM	608 nM	1060 nM
Cc1cc2[nH]ncc2c(-c2ncc3c(N4CCCC(C)(O)C4)nc(OC[C@@]45CCCN4C[C@H](F)C5)nc3c2F)c1C (stereo partly shown) [Example 471]	309 nM	427 nM	1070 nM			332 nM	391 nM	459 nM	362 nM
NS(=O)(=O)CC1CCCN(c2nc(OCC34CCCN3CCC4)nc3c(F)c(-c4cccc5cccc(C(F)F)c45)ncc23)C1 (stereo not shown) [Example 463, 1-(1-(7-(8-(difluoromethyl)naphthalen-1-yl)-8-fluoro-2-((hexahydro-1H-pyrrolizin-7a-yl)methoxy)pyrido[4,3-d]pyrimidin-4-yl)piperidin-3-yl)methanesulfonamide]	6490 nM	3060 nM	1360 nM			1550 nM	1400 nM	2150 nM	2400 nM
NS(=O)(=O)CC1CCCN(c2nc(OCC34CCCN3CCC4)nc3c(F)c(-c4cccc5cccc(CO)c45)ncc23)C1 (stereo not shown) [Example 439, 1-(1-(8-fluoro-2-((hexahydro-1H-pyrrolizin-7a-yl)methoxy)-7-(8-(hydroxymethyl)naphthalen-1-yl)pyrido[4,3-d]pyrimidin-4-yl)piperidin-3-yl)methanesulfonamide]	7970 nM	5790 nM	2830 nM			2150 nM	2260 nM	2530 nM	2030 nM
Cc1cccc2cccc(-c3ncc4c(N5CCCC(c6nc[nH]n6)C5)nc(OCC56CCCN5CCC6)nc4c3F)c12 (stereo not shown) [Example 455, 4-(3-(1H-1,2,4-triazol-3-yl)piperidin-1-yl)-8-fluoro-2-((hexahydro-1H-pyrrolizin-7a-yl)methoxy)-7-(8-methylnaphthalen-1-yl)pyrido[4,3-d]pyrimidine]	6350 nM	5150 nM	4510 nM			5990 nM	8170 nM	8470 nM	11700 nM
CCc1cccc2cccc(-c3ncc4c(N5CCCC(CS(N)(=O)=O)C5)nc(OCC56CCCN5CCC6)nc4c3F)c12 (stereo not shown) [Example 285, 1-(1-(7-(8-ethylnaphthalen-1-yl)-8-fluoro-2-((tetrahydro-1H-pyrrolizin-7a(5H)-yl)methoxy)pyrido[4,3-d]pyrimidin-4-yl)piperidin-3-yl)methanesulfonamide]	976 nM	864 nM	350 nM			367 nM	359 nM	426 nM	323 nM
